# Laboratory results from patent US20120052130A1, “GPR 119 MODULATORS” (Pfizer Inc., priority 2009, published 2012).
# Where “and” joins values, the source holds several entries; their conditions need not be identical. Equal values may be shown once.
# Target: T1, human GPR119 (Homo sapiens, UniProt Q8TDV5)
# T1 sequence (Q8TDV5 1-335): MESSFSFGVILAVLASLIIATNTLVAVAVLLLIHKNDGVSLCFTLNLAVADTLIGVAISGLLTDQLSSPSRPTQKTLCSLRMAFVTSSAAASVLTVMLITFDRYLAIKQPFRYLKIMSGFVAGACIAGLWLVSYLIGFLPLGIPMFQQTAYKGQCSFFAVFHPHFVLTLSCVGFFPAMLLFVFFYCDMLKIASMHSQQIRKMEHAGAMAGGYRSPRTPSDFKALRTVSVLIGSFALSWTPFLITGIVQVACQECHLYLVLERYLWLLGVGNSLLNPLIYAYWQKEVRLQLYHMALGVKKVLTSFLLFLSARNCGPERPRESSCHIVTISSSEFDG
# Test: HTRF cAMP cell-based GPR119 agonist assay (hGPR119 HEK-CRE beta-lactamase cells)
# Parameters: host or cells: hGPR119-HEK293-CRE-beta-lactamase cells
# Conditions: HTRF cAMP, hGPR119 HEK-CRE beta-lactamase cells; each line is a separate determination; read-out: Human cAMP Functional EC50
# Experimental: GPR119 agonist activity was also determined with a cell-based assay utilizing an HTRF (Homogeneous Time-Resolved Fluorescence) cAMP detection kit (cAMP dynamic 2 Assay Kit; Cis Bio cat #62AM4PEC) that measures cAMP levels in the cell. The method is a competitive immunoassay between native cAMP produced by the cells and the cAMP labeled with the dye d2. The tracer binding is visualized by a Mab anti-cAMP labeled with Cryptate. The specific signal (i.e. energy transfer) is inversely proportional to the concentration of cAMP in either standard or sample.
# Specifically, hGPR119HEK-CRE beta-lactamase cells (Invitrogen 2.5×10^7/mL; the same cell line used in the beta-lactamase assay described above) are removed from cryopreservation and diluted in growth medium (Dulbecco's modified Eagle medium high glucose (DMEM; Gibco Cat #11995-065), 1% charcoal dextran treated fetal bovine serum (CD serum; HyClone Cat # SH30068.03), 1×MEM Nonessential amino acids (Gibco Cat #15630-080) and 25 mM HEPES pH 7.0 (Gibco Cat #15630-080)). The cell concentration was adjusted to 1.5×10^5 cells/mL and 30 mLs of this suspension was added to a T-175 flask and incubated at 37 degrees Celsius in a humidified environment in 5% carbon dioxide. […]
# Varying concentrations of each compound to be tested were diluted in assay buffer containing 3-isobutyl-1-methylxanthin (IBMX; Sigma cat #15879) and added to the assay plate wells in a volume of 2 microL (final IBMX concentration was 400 microM and final DMSO concentration was 0.58%). […] The plates were then incubated at room temperature and after 60 minutes, changes in the HTRF signal were read with an Envision 2104 multilabel plate reader using excitation of 330 nm and emissions of 615 and 665 nm. Raw data were converted to nM cAMP by interpolation from a cAMP standard curve (as described in the manufacturer's assay protocol) and EC50 determinations were made from an agonist-response curves analyzed with a curve fitting program using a 4-paramter logistic dose response equation.
row,Compound,EC50
1,"Cc1c(O[C@@H]2[C@@H]3COC[C@H]2CN(C(=O)OC(C)C)C3)ncnc1N1CCc2cc(S(C)(=O)=O)ccc21 [Example 23, Isopropyl (9-syn)-9-({5-methyl-6-[5-(methylsulfonyl)-2,3-dihydro-1H-indol-1-yl]pyrimidin-4-yl}oxy)-3-oxa-7-azabicyclo[3.3.1]nonane-7-carboxylate]",311 nM and 982 nM and 1040 nM and 1330 nM
2,"Cc1c(O[C@@H]2[C@@H]3COC[C@H]2CN(C(=O)OC2(C)CC2)C3)ncnc1N1CCc2ncccc21 [Example 28, 1-Methylcyclopropyl (9-syn)-9-{[6-(2,3-dihydro-1H-pyrrolo[3,2-b]pyridin-1-yl)-5-methylpyrimidin-4-yl]oxy}-3-oxa-7-azabicyclo[3.3.1]nonane-7-carboxylate]",370 nM and 194 nM and 88 nM
